From US6767991B1, “Hepatitis C inhibitor peptides” (priority 1997, dated 2004)
Read-outs that look alike come from different tables or passages of the source. *1 amine or outer side, *2 acyl side, *3 side chain or, on linkers, in order; H or OH if unused. Where a SMILES comes first, the peptide text is derived from it. Where no end group is shown, it is not given here. [ ]: non-standard residue; d: D form. The star is where a group is joined. CH2(1-naphthyl) = c1ccc2c(C*)cccc2c1; oXylylene = c1ccc(C[*:2])c(C[*:1])c1; Hyp = O=C(O)[C@@H]1C[C@@H](O)CN1; Chg = N[C@H](C(=O)O)C1CCCCC1; Tle = CC(C)(C)[C@H](N)C(=O)O; Pip = O=C(O)[C@@H]1CCCCN1; Nva = CCC[C@H](N)C(=O)O; Abu = CC[C@H](N)C(=O)O; Ac3c = NC1(C(=O)O)CC1

Key:
[1] = target: T1, recombinant HCV NS3 protease type 1b (Hepatitis C virus genotype 1b, UniProt P26663); assay: Recombinant HCV NS3 protease radiometric assay; assay type: biochemical, HCV genotype 1b
T1 construct: recombinant HCV NS3 protease (amino acid 1027 to 1206) was cloned in the pET11d bacterial expression vector; made in house; host or cells: E. coli BL21(DE3)pLysS
From the text: Cloning, Expression and Purification of the Recombinant HCV NS3 Protease type 1b.
Serum from an HCV-infected patient was obtained through an external collaboration (Bernard Willems MD, Hôpital St-Luc. Montréal. Canada and Dr. Donald Murphy, Laboratoire de Santé Publique du Québec, Ste-Anne de Bellevue, Canada). An engineered full-length cDNA template of the HCV genome was constructed from DNA fragments obtained by reverse transcription-PCR (RT-PCR) of serum RNA and using specific primers selected on the basis of homology between other genotype 1b strains. From the determination of the entire genomic sequence, a genotype 1b was assigned to the HCV isolate according to the classification of Simmonds et al. (J. Clin. Microbiol., (1993), 31, p.1493-1503). […] A DNA fragment encoding the polyprotein precursor (NS3/NS4A/NS4B/NS5A/NS5B) was generated by PCR and introduced into eukaryotic expression vectors. […] The mature NS3 protein was not observed with expression of a polyprotein precursor containing the mutation S1165A, which inactivates the NS3 protease, confirming the functionality of the HCV NS3 protease.
The DNA fragment encoding the recombinant HCV NS3 protease (amino acid 1027 to 1206) was cloned in the pET11d bacterial expression vector. The NS3 protease expression in E. coli BL21(DE3)pLysS was induced by incubation with 1 mM IPTG for 3 h at 22° C. A typical fermentation (18 L) yielded approximately 100 g of wet cell paste. The cells were resuspended in lysis buffer (3.0 mL/g) consisting of 25 mM sodium phosphate, pH 7.5, 10% glycerol (v/v), 1 mM EDTA, 0.01% NP-40 and stored at −80° C. Cells were thawed and homogenized following the addition of 5 mM DTT. Magnesium chloride and DNase were then added to the homogenate at final concentrations of 20 mM and 20 μg/mL respectively. After a 25 min incubation at 4° C., the homogenate was sonicated and centrifuged at 15000×g for 30 min at 4° C. The pH of the supernatant was then adjusted to 6.5 using a 1 M sodium phosphate solution.
An additional gel filtration chromatography step was added to the 2 step purification procedure described in WO 95/22985 (incorporated herein by reference). Briefly, the supernatant from the bacterial extract was loaded on a SP HiTrap column (Pharmacia) previously equilibrated at a flow rate of 2 mL/min in buffer A (50 mM sodium phosphate. pH 6.5, […], 1 mM EDTA, 5 mM DTT, 0.01% NP-40). The column was then washed with buffer A containing 0.15 M NaCl and the protease eluted by applying 10 column volumes of a linear 0.15 to 0.3 M NaCl gradient. NS3 protease-containing fractions were pooled and diluted to a final NaCl concentration of 0.1 M. The enzyme was further purified on a HiTrap Heparin column (Pharmacia) equilibrated in buffer B (25 mM sodium phosphate, pH 7.5, 10% glycerol, 5 mM DTT, 0.01% NP-40). The sample was loaded at a flow rate of 3 mL/min. The column was then washed with buffer B containing 0.15 M NaCl at a flow rate of 1.5 mL/min. Two step washes were performed in the presence of buffer B containing 0.3 or 1 M NaCl. The protease was recovered in the 0.3M NaCl wash, diluted 3-fold with buffer B, reapplied on the HiTrap Heparin column and eluted with buffer B containing 0.4 M NaCl. Finally, the NS3 protease-containing fractions were applied on a Superdex 75 HiLoad 16/60 column (Pharmacia) equilibrated in buffer B containing 0.3 M NaCl. The purity of the HCV NS3 protease obtained from the pooled tractions was judged to be greater than 95% by SDS-PAGE followed by densitometry analysis.
The enzyme was stored at −80° C. and was thawed on ice and diluted just prior to use.
Recombinant HCV NS3 Protease Radiometric Assay
The substrate used for the HCV NS3 protease radiometric assay, DDIVPC-SMSYTW [SEQ. ID NO. 2], is cleaved between the cysteine and the serine residues by the enzyme. The sequence DDIVPC-SMSYTW [SEQ. ID NO. 2] corresponds to the NS5A/NS5B natural cleavage site in which the cysteine residue in P2 has been substituted for a proline. […]

human leukocyte elastase = target: T2, human leukocyte elastase (Homo sapiens, UniProt P08246); assay: Specificity assay: human leukocyte elastase; assay type: biochemical
T2 sequence (P08246 30-267): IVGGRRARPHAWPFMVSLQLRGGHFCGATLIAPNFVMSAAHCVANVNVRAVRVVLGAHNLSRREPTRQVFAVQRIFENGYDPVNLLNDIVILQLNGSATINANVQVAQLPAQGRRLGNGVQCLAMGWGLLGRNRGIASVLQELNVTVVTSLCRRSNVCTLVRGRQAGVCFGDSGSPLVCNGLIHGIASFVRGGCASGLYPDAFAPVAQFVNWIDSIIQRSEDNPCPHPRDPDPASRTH
Method: The final conditions for each assay were as follows:
[100 μM Succ-AAPF-pNA [SEQ. ID NO.
The percentage of inhibition was calculated using the formula:
[1-((UVinn-UVblank)/(UVctl-UVblank))]×100

[2] = target: T3, HCV NS3 protease type 1b/NS4A cofactor peptide (Hepatitis C virus genotype 1b, UniProt P26663); assay: Recombinant HCV NS3 protease/NS4A cofactor peptide radiometric assay; assay type: biochemical, HCV genotype 1b
T3 construct: recombinant HCV NS3 protease (amino acid 1027 to 1206) was cloned in the pET11d bacterial expression vector; made in house; host or cells: E. coli BL21(DE3)pLysS
Method: Recombinant HCV NS3 Protease/NS4A Cofactor Peptide Radiometric Assay.
The enzyme was stored at −80° C., thawed on ice and diluted just prior to use in the assay buffer containing the NS4A cofactor peptide.
The substrate used for the NS3 protease/NS4A cofactor peptide radiometric assay, DDIVPC-SMSYTW [SEQ. ID NO. 2], is cleaved between the cysteine and the serine residues by the enzyme. The sequence DDIVPC-SMSYTW [SEQ. ID NO. 2] corresponds to the NS5A/NS5B natural cleavage site in which the cysteine residue in P2 has been substituted for a proline. The peptide substrate DDIVPC-SMSYTW [SEQ. ID NO. […] ID NO. […] [SEQ. ID NO. 5] (molar ratio enzyme: cofactor 1:100) in the absence or presence of inhibitors. The separation of substrate from products is performed by adding avidin-coated agarose beads to the assay mixture followed by filtration. […] ID NO. 4] product found in the filtrate allows for the calculation of the percentage of substrate conversion and of the percentage of inhibition.
Tris and Tris-HCl (UltraPure) were obtained from Gibco-BRL. Glycerol (UltraPure), MES and BSA were purchased from Sigma. TCEP was obtained from Pierce, DMSO from Aldrich and NaOH from Anachemia.
Assay buffer: 50 mM Tris HCl, pH 7.5, 30% (w/v) glycerol, 1 mg/mL BSA, 1 mM TCEP (TCEP added just prior to use from a 1 M stock solution in water).
Substrate: […] [SEQ. ID NO.
ID NO. 3] (˜1 nM final concentration).
The assay was performed in a 96-well polypropylene plate from Costar. Each well contained:
20 μL substrate/tracer in assay buffer;
10 μL±inhibitor in 20% DMSO/assay buffer;
10 μL NS3 protease 1b/NS4 cofactor peptide (molar ratio 1:100).
Blank (no inhibitor and no enzyme) and control (no inhibitor) were also prepared on the same assay plate.
The enzymatic reaction was initiated by the addition of the enzyme/NS4A peptide solution and the assay mixture was incubated for 40 min at 23° C. under gentle agitation. Ten (10) μL of 0.5N NaOH were added and 10 μL 1 M MES, pH 5.8 were added to quench the enzymatic reaction.
Twenty (20) μL of avidin-coated agarose beads (purchased from Pierce) were added in a Millipore MADP N65 filtration plate. The quenched assay mixture was transferred to the filtration plate, and incubated for 60 min at 23° C. under gentle agitation.
The plates were filtered using a Millipore MultiScreen Vacuum Manifold Filtration apparatus, and 40 μL of the filtrate was transferred in an opaque 96-well plate containing 60 μL of scintillation fluid per well.
The % inhibition was calculated with the following equation:
100-[(countsinh-countsblank)/(countsctl-countsblank)×100]

T3 sequence (P26663 1027-1206, other chains not shown): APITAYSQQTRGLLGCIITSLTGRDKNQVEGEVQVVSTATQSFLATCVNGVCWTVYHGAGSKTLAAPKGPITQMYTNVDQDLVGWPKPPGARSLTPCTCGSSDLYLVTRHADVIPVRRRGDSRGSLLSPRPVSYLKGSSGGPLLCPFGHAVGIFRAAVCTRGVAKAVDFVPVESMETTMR
T1 sequence (P26663 1027-1206): as the sequence (P26663 1027-1206, other chains not shown) above

| Compound | IC50 [1] [µM] | other results |
| --- | --- | --- |
| Ac-DDIVLC [compound 116] | 16 | – |
| CC(=O)N[C@@H](CC(=O)O)C(=O)N[C@@H](CC(=O)O)C(=O)N[C@H](C(=O)N[C@H](C(=O)N1CCC[C@H]1C(=O)N[C@@H](CS)C(=O)O)C(C)C)C1CCCCC1 [compound 110] (Ac-DD[Chg]VPC-OH; C-terminus assumed) | 24 | – |
| CC[C@@H]1C[C@]1(NC(=O)[C@@H]1C[C@@H](OCc2cccc3ccccc23)CN1C(=O)[C@@H](NC(=O)[C@@H](NC(C)=O)C1CCCCC1)C(C)C)C(=O)O [compound 513] | – | IC50 (human leukocyte elastase): > 300 µM; fold more potent than the corresponding 1S,2S isomer ([2]; 1R,2R isomer (513) versus 1S,2S isomer (514)): 25 fold; IC50 ([2]; IC50 (μM), Table 5, first line of the cell, NS3 protease/NS4A cofactor peptide radiometric assay (Example 38)): 1.66 µM; IC50 ([2]; text b180, values of Table 5, 1R,2R versus 1S,2S isomer at P1, read-out: IC50): 1.6 µM |
| CC(=O)N[C@H](C(=O)N[C@H](C(=O)N1C[C@H](OCc2cccc3ccccc23)C[C@H]1C(=O)NC1(C(=O)O)CC1)C(C)C)C1CCCCC1 [compound 227] (Ac-[Chg]V[Hyp](CH2(1-naphthyl))[Ac3c]-OH) | – | IC50 (human leukocyte elastase): > 600 µM; IC50 ([2]; Table 2, unmarked values: NS3 protease/NS4A cofactor peptide radiometric assay, read-out: IC50): 3 µM |
| CCC[C@H](NC(=O)[C@@H]1CCCN1C(=O)[C@@H](NC(=O)[C@@H](NC(=O)[C@@H](NC(=O)[C@H](CC(=O)O)NC(C)=O)C(C)(C)C)[C@@H](C)CC)C(C)C)C(=O)O [compound 129] (Ac-D[Tle]IVP[Nva]-OH; C-terminus assumed) | 270 | – |
| CC[C@H](C)[C@H](NC(=O)[C@H](CC(=O)O)NC(=O)[C@H](CC(=O)O)NC(C)=O)C(=O)N[C@H](C(=O)N1CCC[C@H]1C(=O)N[C@@H](CS)C(=O)O)C1CCCCC1 [compound 114] (Ac-DDI[Chg]PC-OH; C-terminus assumed) | 50 | – |
| CCC[C@H](NC(=O)[C@@H]1C[C@@H](OCc2ccccc2C)CN1C(=O)[C@@H](NC(=O)[C@@H](NC(=O)[C@H](CC(=O)O)NC(=O)[C@H](CC(=O)O)NC(C)=O)[C@@H](C)CC)C(C)C)C(=O)O [compound 204] (Ac-DDIV[Hyp](oXylylene)[Nva]-OH; C-terminus assumed) | 9.4 | – |
| CC[C@H](NC(=O)[C@@H](NC(=O)[C@@H](NC(=O)[C@H](CC(=O)O)NC(=O)[C@H](CC(=O)O)NC(C)=O)[C@@H](C)CC)C(C)C)C(=O)N[C@@H](CS)C(=O)O [compound 115] (Ac-DDIV[Abu]C-OH; C-terminus assumed) | 58 | – |
| Ac-DDVVPC [compound 109] | 80 | – |
| Ac-DVIVPC [compound 107] | 85 | – |
| CCC[C@H](NC(=O)[C@@H]1CCCCN1C(=O)[C@@H](NC(=O)[C@@H](NC(=O)[C@H](CC(=O)O)NC(=O)[C@H](CC(=O)O)NC(C)=O)[C@@H](C)CC)C(C)C)C(=O)O [compound 127] (Ac-DDIV[Pip][Nva]-OH; C-terminus assumed) | 605 | – |
